From PMC4883017 (Molecular pharmaceutics, 2015)

Tests used:
HIV-1ADA [1] = assay: Antiviral activity in vivo, humanized PBL-NSG mouse model of HIV-1 infection; set-up: species or system hu-PBL NSG mice; conditions: three i.v. injections over 15 days, Day 15
HepG2 cells = conditions: human, 10 days, 30 μg/mL
[2] = Pharmacokinetics after i.v. injection; assay type: in vivo; conditions: plasma, Balb/c mice, means ± SD
HIV-1ADA [3] = assay: Reverse transcriptase inhibition in HIV-1 infected MDM; assay type: cell-based; conditions: total NRTI concentration 4 μg/mL, Day 10
[4] = cited from earlier work

In the case of `Cc1cn([C@H]2C[C@H](N=[N+]=[N-])[C@@H](CO)O2)c(=O)[nH]c1=O` [AZT, Zidovudine], the “Reduction of the virus level per lymphocyte (p24/CD45)” value (HIV-1ADA [1]) is reported as “three-fold reduction”, the “Drop of the mtDNA amount” value (HepG2 cells) is reported as 60% and the “AUC 0-τ” value [2] is reported as 22.896 ± 0.085 µg·h/mL. The “AUC 0-∞” value [2] was 88.404 ± 0.786 µg·h/mL, the CL [2] was 3.81 ± 0.17 mL/h and the “10-fold virus inhibition in the infected MDM at fixed concentration” value (HIV-1ADA [3]) was “achieved only after the treatment with nanodrugs”. The “Administered drug removed with urine” value [4] was “more than 90%”.
